# Literature values in patent US20130338095A1, “Chemosensory Receptor Ligand-Based Therapies” (ELCELYX THERAPEUTICS, INC., priority 2010, published 2013).
# Biological target: T1, sweet receptor (Homo sapiens, UniProt Q7RTX0+Q8TE23)
# T1 sequence (Q8TE23 20-839): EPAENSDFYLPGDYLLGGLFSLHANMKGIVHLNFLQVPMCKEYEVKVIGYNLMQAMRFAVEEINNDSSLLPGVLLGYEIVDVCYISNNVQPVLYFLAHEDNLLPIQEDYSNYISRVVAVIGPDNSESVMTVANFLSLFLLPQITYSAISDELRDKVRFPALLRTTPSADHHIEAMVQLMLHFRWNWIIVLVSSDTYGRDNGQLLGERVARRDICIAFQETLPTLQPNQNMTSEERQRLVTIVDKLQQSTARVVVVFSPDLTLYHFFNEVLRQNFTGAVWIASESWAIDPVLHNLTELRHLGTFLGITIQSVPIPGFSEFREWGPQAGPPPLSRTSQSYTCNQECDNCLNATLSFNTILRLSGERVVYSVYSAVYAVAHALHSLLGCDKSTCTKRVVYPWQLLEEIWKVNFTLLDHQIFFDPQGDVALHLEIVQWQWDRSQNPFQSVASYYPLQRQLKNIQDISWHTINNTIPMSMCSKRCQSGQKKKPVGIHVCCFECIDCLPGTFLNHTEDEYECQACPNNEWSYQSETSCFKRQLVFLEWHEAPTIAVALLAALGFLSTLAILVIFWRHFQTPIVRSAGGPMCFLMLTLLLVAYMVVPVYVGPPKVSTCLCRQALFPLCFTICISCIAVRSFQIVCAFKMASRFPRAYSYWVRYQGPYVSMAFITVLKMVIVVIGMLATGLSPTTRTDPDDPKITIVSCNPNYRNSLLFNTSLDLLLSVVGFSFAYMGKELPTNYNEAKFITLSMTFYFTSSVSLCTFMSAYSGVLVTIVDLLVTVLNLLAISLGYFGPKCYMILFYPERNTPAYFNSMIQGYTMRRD
# T1 sequence (Q7RTX0 21-852): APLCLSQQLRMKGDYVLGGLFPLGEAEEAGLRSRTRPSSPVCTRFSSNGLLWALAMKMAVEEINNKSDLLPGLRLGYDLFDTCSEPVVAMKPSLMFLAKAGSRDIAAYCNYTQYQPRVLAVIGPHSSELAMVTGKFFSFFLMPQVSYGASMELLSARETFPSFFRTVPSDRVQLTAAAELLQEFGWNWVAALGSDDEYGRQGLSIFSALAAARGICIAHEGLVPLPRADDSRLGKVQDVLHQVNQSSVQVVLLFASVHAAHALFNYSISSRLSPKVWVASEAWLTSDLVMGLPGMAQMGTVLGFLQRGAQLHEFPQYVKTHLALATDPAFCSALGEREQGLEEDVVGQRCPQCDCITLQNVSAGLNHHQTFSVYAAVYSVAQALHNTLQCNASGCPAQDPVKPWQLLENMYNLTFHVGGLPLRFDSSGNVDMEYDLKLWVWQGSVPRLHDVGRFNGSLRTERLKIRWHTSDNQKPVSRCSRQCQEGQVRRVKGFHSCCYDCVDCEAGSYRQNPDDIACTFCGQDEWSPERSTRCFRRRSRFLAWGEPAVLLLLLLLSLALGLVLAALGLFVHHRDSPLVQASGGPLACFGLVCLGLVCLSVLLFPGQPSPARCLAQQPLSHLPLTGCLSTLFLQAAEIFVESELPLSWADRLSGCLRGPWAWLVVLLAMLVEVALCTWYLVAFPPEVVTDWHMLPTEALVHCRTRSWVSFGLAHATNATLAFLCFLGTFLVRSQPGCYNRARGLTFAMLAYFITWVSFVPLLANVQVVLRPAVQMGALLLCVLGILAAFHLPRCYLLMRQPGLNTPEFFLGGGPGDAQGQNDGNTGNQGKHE
# Details: relative sweetness on a weight comparison basis to sucrose (=1.0)
row,Sweetness/potency,Compound
1,100,COC(=O)[C@H]1O[C@@H](O[C@H]2[C@H](O[C@H]3CC[C@]45C[C@]46CC[C@]4(C)[C@@H]([C@H](C)[C@@H]7CC=C(C)C(=O)O7)CC[C@@]4(C)[C@@H]6CC[C@H]5[C@]3(C)C(=O)O)O[C@H](CO)[C@@H](O)[C@@H]2O)[C@H](O)[C@@H](O)[C@@H]1O [Abrusoside B]
2,250,Cyclocaryoside I
3,"1,500",CC(C)=CCC[C@](C)(O)[C@@H]1CCC(C)=CC1=O [(+)-Hernandulcin]
4,30,CC1=CC[C@@H]([C@@H](C)[C@H]2CC[C@@]3(C)[C@@H]4CC[C@H]5[C@](C)(C(=O)O)[C@@H](O[C@@H]6O[C@H](CO)[C@@H](O)[C@H](O)[C@H]6O)CC[C@@]56C[C@@]46CC[C@]23C)OC1=O [Abrusoside A]
5,220,CC1(C(=O)O)C=C2C3CCC4C5(C=O)CCC(OC6OC(C(=O)O)C(O)C(O)C6OC6OCC(O)C(O)C6O)C(C)(C)C5CCC4(C)C3(C)CCC2(C)CC1 (stereo not drawn) [Periandrin V]
6,500,Pentadin
7,600,Albiziasaponin B
8,54,Scandenoside R6
9,5,CC1(C)C[C@H]2C3=CC[C@@H]4[C@@]5(C)CC[C@H](O[C@@H]6O[C@H](CO[C@@H]7OC[C@H](O)[C@H](O)[C@H]7O[C@@H]7OC[C@@H](O)[C@H](O)[C@H]7O)[C@@H](O)[C@H](O)[C@H]6O)C(C)(C)[C@@H]5CC[C@@]4(C)[C@]3(C)C[C@@H](O)[C@@]23C[C@@H]1OC3=O [Albiziasaponin A]
10,"1,000",COc1ccc(CCC(=O)c2c(O)cc(O[C@@H]3O[C@H](CO)[C@@H](O)[C@H](O)[C@H]3O[C@@H]3O[C@@H](C)[C@H](O)[C@@H](O)[C@H]3O)cc2O)cc1O [Neohesperidin dihydrochalcone]
11,400,COc1ccc([C@H]2Cc3cccc(O)c3C(=O)O2)cc1O [Phyllodulcin]
12,300,C[C@@H]1O[C@@H](O[C@H]2[C@H](Oc3cc(O)c(C(=O)CCc4ccc(O)cc4)c(O)c3)O[C@H](CO)[C@@H](O)[C@@H]2O)[C@H](O)[C@H](O)[C@H]1O [Naringin dihydrochalcone]
13,30,C=C1C[C@@]23CC[C@H]4[C@@](C)(CCC[C@@]4(C)C(=O)O[C@@H]4O[C@H](CO)[C@@H](O)[C@H](O)[C@H]4O)[C@@H]2CC[C@]1(O[C@@H]1O[C@H](CO)[C@@H](O)[C@H](O)[C@H]1O[C@@H]1O[C@@H](C)[C@H](O)[C@@H](O)[C@H]1O)C3 [Dulcoside A]
14,51,Carnosifloside V
15,"3,000",Monellin
16,20,"COc1c(O)cc2c(c1O)C(=O)[C@H](OC(C)=O)[C@@H](c1ccc(O)cc1)O2 [(2R,3R)-2,3-Dihydro-5,7,4′-trihydroxy-6-methoxy-3-O-acetylflavonol]"
17,85,Periandrin IV
18,210,C=C1C[C@@]23CC[C@H]4[C@@](C)(CCC[C@@]4(C)C(=O)O[C@@H]4O[C@H](CO)[C@@H](O)[C@H](O)[C@H]4O)[C@@H]2CC[C@]1(O[C@@H]1O[C@H](CO)[C@@H](O)[C@H](O)[C@H]1O[C@@H]1O[C@H](CO)[C@@H](O)[C@H](O)[C@H]1O)C3 [Stevioside]
19,100,C=C(C)C1CCC2(C)C(CC(OC3OCC(O)C(O)C3O)C3C(C(C)(O)C/C=C/C(C)(C)O)CCC32C)C1(C)CCC(=O)O (stereo not drawn) [Pterocaryoside B]
20,95,Periandrin II

row,Sweetness/potency,Compound
1,77,C/C(=C\CC[C@@H](C)[C@H]1CC[C@@]2(C)[C@@H]3CC=C4[C@@H](CC[C@H](O[C@@H]5O[C@H](CO)[C@@H](O)[C@H](O)[C@H]5O)C4(C)C)[C@]3(C)[C@H](O)C[C@]12C)CO[C@@H]1O[C@H](CO[C@@H]2O[C@H](CO)[C@@H](O)[C@H](O)[C@H]2O)[C@@H](O)[C@H](O)[C@H]1O [Carnosifloside VI]
2,50,Pterocaryoside A
3,"2,000","Brazzein (QDKCKKVYENYPVSKCQLANQCNYDCKLDKHARSGECFYDEKRNLQCICDYCEY; UniProt P56552 1-54, looked up) [sweet protein from Pentadiplandra brazzeana]"
4,75,CC1=CC[C@@H]([C@@H](C)[C@H]2CC[C@@]3(C)[C@@H]4CC[C@H]5[C@](C)(C(=O)O)[C@@H](O[C@@H]6O[C@H](CO)[C@@H](O)[C@H](O)[C@H]6O[C@@H]6O[C@H](C(=O)O)[C@@H](O)[C@H](O)[C@H]6O)CC[C@@]56C[C@@]46CC[C@]23C)OC1=O [Abrusoside D]
5,50,CC1=CC[C@@H]([C@@H](C)[C@H]2CC[C@@]3(C)[C@@H]4CC[C@H]5[C@](C)(C(=O)O)[C@@H](O[C@@H]6O[C@H](CO)[C@@H](O)[C@H](O)[C@H]6O[C@@H]6O[C@H](CO)[C@@H](O)[C@H](O)[C@H]6O)CC[C@@]56C[C@@]46CC[C@]23C)OC1=O [Abrusoside C]
6,300,CC1(C(=O)O)CCC2(C)CCC3(C)C(=CC(=O)C4C5(C)CCC(OC6OC(C(=O)O)C(O)C(O)C6OC6OCC(O)(CO)C6O)C(C)(C)C5CCC43C)C2C1 (stereo not drawn) [Apioglycyrrhizin]
7,30,Rebaudioside C
8,15,"COc1c(O)cc2c(c1O)C(=O)[C@H](O)[C@@H](c1ccc(O)c(O)c1)O2 [(2R,3R)-2,3-Dihydro-5,7,3′,4′-tetrahydroxy-6-methoxyflavonol]"
9,150,Rebaudioside B
10,500,Baiyunoside
11,90,CC1(C)[C@@H](O[C@@H]2O[C@H](C(=O)O)[C@@H](O)[C@H](O)[C@H]2O[C@@H]2O[C@H](C(=O)O)[C@@H](O)[C@H](O)[C@H]2O)CC[C@]2(C=O)[C@H]3CC[C@@H]4C5=C[C@@](C)(C(=O)O)CC[C@]5(C)CC[C@@]4(C)[C@]3(C)CC[C@@H]12 [Periandrin I]
12,550,Curculin
13,600,Polypodoside A
14,25,"COc1c(O)cc2c(c1O)C(=O)[C@H](OC(C)=O)[C@@H](c1ccc(O)c(O)c1)O2 [(2R,3R)-2,3-Dihydro-5,7,3′,4′-tetrahydroxy-6-methoxy-3-O-acetylflavonol]"
15,"1,600",Thaumatin
16,150,CC1(C)[C@@H](O[C@H]2O[C@H](C(=O)O)[C@@H](O)[C@H](O)[C@H]2O[C@@H]2OC[C@H](O)[C@H](O)[C@H]2O)CC[C@]2(C)[C@H]3C(=O)C=C4[C@@H]5C[C@@](C)(C(=O)O)CC[C@]5(C)CC[C@@]4(C)[C@]3(C)CC[C@@H]12 [Araboglycyrrhizin]
17,90,C=C1C[C@@]23CC[C@H]4[C@@](C)(CCC[C@@]4(C)C(=O)O)[C@@H]2CC[C@]1(O[C@@H]1O[C@H](CO)[C@@H](O)[C@H](O)[C@H]1O[C@@H]1O[C@H](CO)[C@@H](O)[C@H](O)[C@H]1O)C3 [Steviolbioside]
18,200,Cyclocarioside A
19,ca. 1,C/C(=C\CC/C(C)=C/CO[C@@H]1O[C@H](CO)[C@@H](O)[C@H](O[C@@H]2O[C@@H](C)[C@H](O)[C@@H](O)[C@H]2O)[C@H]1O[C@@H]1O[C@@H](C)[C@H](O)[C@@H](O)[C@H]1O)CC/C=C(\C)CO[C@@H]1O[C@H](CO)[C@@H](O)[C@H](O[C@@H]2O[C@@H](C)[C@H](O)[C@@H](O)[C@H]2O)[C@H]1O[C@@H]1O[C@@H](C)[C@H](O)[C@@H](O)[C@H]1O [Mukurozioside IIb]

row,Compound,Sweetness/potency
1,COc1ccc(C2Oc3cc(O)cc(O)c3C(=O)C2OC(C)=O)cc1O (stereo not drawn) [Dihydroquercetin 3-O-acetate 4′-methyl ether],400
2,Oc1cc2c(cc1O)[C@@H]1c3ccc(O)c(O)c3OC[C@]1(O)C2 [Hematoxylin],120
3,O=C/C=C/c1ccccc1 [Trans-Cinnamaldehyde],50
